# Results as given in US20240238426A1, “PROTEIN ACYLATION MODULATION BY HETEROBIFUNCTIONAL MOLECULES” (THE SCRIPPS RESEARCH INSTITUTE, priority 2021, published 2024).
# Key:
# p300 = target: T1, p300 (Homo sapiens, UniProt Q09472); experiment: In-situ photocrosslinking with p300-p probe and competition by AceTAG-1 in HEK293T cells; type: cell-based; conditions: increasing concentrations of AceTAG-1, 30 min, FIG. 3F
# T1 construct: expressed in transfected cells; host or cells: HEK293T (transient)
# Experimental: In-situ photocrosslinking with p300-BRD photocrosslinking probe and competition by AceTAG-1: At 50%-70% confluency, HEK293t cells in 6-well plates were transfected with pSG5-HA-p300. After 24 h, cells were co-treated for 30 min with […] p300-p probe and increasing concentration of AceTAG-1 in serum-free media. Cells then underwent UV-photocrosslinking (365 nm) for 20 min at 4° C. and harvested in cold DPBS by scraping and centrifugation. Cell pellets were washed with cold DPBS two times and aspirated. Cells were then lysed in 200 μL DPBS buffer supplemented with 1X Halt protease inhibitor cocktail. Lysate was fractionated by ultracentrifuge (100000 g, 45 min, 4° C.) to provide soluble fraction (supernatant) and membrane fraction (pellets). Soluble fraction was normalized to 2 mg/mL, underwent click reaction with Rhodamine-azide as previously described. Proteins (25 μg total protein loaded per gel lane) were resolved using SDS-PAGE (6% acrylamide). In-gel fluorescence visualization and immunoblot analysis was carried out as previously described.
# p21 = experiment: qPCR analysis of p21 mRNA level in FKBP12^F36V-p53 H1299 cells; type: cell-based, Human; conditions: indicated doses, 8 hr, FIG. 7C
# FKBP12^F36V = target: T2, FKBP12^F36V (Homo sapiens, UniProt P62942, F37V); experiment: AceTAG-1 target engagement: FKBP-p photo-crosslinking probe competition in HEK293T cells; type: cell-based; conditions: 0.5 μM FKBP-p probe, increasing concentrations of AceTAG-1, 30 min, FIG. 3E
# T2 construct: expressed in transfected cells; host or cells: HEK293T (transient)
# Experimental: AceTAG-1 Target Engagement: At 50%-70% confluency, HEK293t cells in 6-well plates were transfected with pLEX305-C-dTAG-H3.3. After 24 h, cells were co-treated for 30 min with 0.5 μM FKBP-p probe and increasing concentration of AceTAG-1 in serum-free DMEM media. Cells then underwent UV-photocrosslinking (365 nm) for 20 min at 4° C., harvested in cold DPBS by scraping and centrifugation, cell pellets were washed with cold DPBS two times and aspirated. Cells were then lysed in 400 μL DPBS buffer supplemented with 0.2% SDS (w/v) and 1X Halt protease inhibitor cocktail. Lysate was then normalized to 1.5 mg/mL. […] Proteins (25 μg total protein loaded per gel lane) were resolved using SDS-PAGE (10% acrylamide) and visualized by in-gel fluorescence on Bio-Rad ChemiDoc MP Imaging System. Gel fluorescence and imaging was processed using Image Lab (v 6.0.1) software. […] Chemiluminescence was recorded with Bio-Rad ChemiDoc MP Imaging System and processed using Image Lab (v 6.0.1) software.
# p21 promoter = experiment: ChIP-qPCR of FKBP12^F36V-p53 binding to p21 promoter; type: cell-based, Human; conditions: AceTAG-1 treatment vs DMSO, FIG. 7G
# Excerpt: The p53/p21 ^CIP/WAF1 pathway is one of the most well-studied pathways related to p53 acetylation ^[8a, 14]. It has been reported that acetylation of p53 at lysine 373 and 382 play an important in activating transcription and translation of the p21^CIP/WAF1 gene^[15], which inhibits cell cycle progression during G1 and G2 phases ^[16]. However, it is still unknown whether these are the only two sites necessary for activation of downstream pathway. Moreover, the molecular mechanism as to how AceTAG-1 mediates p21 induction is currently uncertain as there are multiple hypotheses of how p53 acetylation affects transcriptional activity. […] We first tested whether AceTAG-mediated p53 acetylation increases its DNA binding to p21 promoter by ChIP-qPCR. The cells were incubated with AceTAG-1 and FKBP12^F36V-HA-p53 was immunoprecipitated, where DNA binding to the protein was purified for qPCR analysis. Among five p21 DNA sequences, binding of FKBP12^F36V-p53 to four previously reported p53 binding sites on p21 promoter (Mujtaba et al., Molecular Cell 13, 251-263, 2004) were increased with AceTAG-1 treatment.
# T2 sequence (P62942 2-108 F37V limits assumed): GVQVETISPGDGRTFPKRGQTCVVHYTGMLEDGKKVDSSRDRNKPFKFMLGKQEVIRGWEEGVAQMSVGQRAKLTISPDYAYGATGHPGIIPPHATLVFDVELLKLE
# T1 sequence (Q09472 whole entry, species assumed): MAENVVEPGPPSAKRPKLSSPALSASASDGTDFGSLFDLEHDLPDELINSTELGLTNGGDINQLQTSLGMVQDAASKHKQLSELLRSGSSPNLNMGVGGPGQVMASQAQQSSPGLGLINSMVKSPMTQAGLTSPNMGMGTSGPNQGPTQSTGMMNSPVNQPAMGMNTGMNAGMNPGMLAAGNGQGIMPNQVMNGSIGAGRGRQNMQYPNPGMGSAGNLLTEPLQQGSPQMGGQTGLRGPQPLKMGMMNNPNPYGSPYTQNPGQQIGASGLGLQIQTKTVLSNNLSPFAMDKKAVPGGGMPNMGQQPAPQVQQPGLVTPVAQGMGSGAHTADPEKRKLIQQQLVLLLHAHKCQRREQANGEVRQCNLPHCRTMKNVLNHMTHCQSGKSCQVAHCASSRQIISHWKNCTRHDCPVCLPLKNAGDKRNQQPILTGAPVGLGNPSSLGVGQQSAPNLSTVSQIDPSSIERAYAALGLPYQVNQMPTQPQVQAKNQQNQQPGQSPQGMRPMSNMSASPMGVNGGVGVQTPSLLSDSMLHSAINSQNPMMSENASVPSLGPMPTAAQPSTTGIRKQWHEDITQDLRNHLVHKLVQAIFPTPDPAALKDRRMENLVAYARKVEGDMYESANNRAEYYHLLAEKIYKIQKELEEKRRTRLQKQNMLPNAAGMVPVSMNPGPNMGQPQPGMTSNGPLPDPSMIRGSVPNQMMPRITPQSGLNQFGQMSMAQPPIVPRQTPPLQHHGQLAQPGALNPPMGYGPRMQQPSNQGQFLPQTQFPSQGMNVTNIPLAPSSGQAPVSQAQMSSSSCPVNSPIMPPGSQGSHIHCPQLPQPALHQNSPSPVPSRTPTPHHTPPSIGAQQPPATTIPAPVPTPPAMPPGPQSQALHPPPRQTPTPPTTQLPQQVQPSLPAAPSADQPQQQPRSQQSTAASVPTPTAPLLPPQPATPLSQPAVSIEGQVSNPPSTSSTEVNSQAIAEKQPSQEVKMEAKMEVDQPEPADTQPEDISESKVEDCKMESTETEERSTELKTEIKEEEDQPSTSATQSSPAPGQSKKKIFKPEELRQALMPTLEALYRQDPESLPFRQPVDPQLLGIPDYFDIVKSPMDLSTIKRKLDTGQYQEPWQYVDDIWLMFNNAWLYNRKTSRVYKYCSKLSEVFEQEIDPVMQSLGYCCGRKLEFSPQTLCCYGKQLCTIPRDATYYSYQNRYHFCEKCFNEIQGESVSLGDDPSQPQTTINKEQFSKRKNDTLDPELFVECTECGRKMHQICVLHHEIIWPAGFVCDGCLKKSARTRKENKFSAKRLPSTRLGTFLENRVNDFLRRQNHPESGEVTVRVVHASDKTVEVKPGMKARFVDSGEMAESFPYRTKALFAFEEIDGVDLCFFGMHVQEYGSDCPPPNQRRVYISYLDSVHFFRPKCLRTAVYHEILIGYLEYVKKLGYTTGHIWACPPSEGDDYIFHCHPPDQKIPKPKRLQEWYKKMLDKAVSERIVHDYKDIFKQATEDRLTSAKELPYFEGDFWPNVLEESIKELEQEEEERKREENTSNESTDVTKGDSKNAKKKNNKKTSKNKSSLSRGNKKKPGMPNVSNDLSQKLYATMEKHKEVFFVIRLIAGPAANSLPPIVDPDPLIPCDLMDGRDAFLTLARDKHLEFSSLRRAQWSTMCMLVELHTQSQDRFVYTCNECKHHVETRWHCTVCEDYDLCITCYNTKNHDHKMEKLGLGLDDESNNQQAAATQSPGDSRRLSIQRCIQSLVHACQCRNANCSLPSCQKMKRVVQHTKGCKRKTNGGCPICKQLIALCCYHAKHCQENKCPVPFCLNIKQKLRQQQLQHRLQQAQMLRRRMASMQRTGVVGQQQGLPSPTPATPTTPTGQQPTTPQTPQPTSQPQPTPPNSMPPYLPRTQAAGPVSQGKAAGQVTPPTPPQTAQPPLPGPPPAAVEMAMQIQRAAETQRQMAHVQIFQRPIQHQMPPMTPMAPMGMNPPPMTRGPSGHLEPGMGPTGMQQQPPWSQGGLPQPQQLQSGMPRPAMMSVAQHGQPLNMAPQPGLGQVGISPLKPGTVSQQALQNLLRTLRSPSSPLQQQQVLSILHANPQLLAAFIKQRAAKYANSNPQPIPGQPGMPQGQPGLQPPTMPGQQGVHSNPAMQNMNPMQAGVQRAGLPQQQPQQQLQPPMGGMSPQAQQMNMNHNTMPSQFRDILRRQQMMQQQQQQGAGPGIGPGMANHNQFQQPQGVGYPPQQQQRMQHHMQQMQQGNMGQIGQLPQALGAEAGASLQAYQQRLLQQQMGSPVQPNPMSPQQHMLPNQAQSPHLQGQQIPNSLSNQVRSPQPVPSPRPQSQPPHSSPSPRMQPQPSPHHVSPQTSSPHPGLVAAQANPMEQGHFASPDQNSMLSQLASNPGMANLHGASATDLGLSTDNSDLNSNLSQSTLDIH
smiles,measurement,setting,value
"CC[C@H](C(=O)N1CCCC[C@H]1C(=O)O[C@H](CCc1ccc(OC)c(OC)c1)c1cccc(OCC(=O)NCCOCCOCCC(=O)NCCOc2ccc(CCc3nc4cc(-c5c(C)noc5C)ccc4n3CCN3CCOCC3)cc2)c1)c1cc(OC)c(OC)c(OC)c1 [AceTAG-1, (R)-3-(3,4-dimethoxyphenyl)-1-(3-((15-(4-(2-(5-(3,5-dimethylisoxazol-4-yl)-1-(2-morpholinoethyl)-1H-benzo[d]imidazol-2-yl)ethyl)phenoxy)-2,12-dioxo-6,9-dioxa-3,13-diazapentadecyl)oxy)phenyl)propyl (S)-1-((S)-2-(3,4,5-trimethoxyphenyl)butanoyl)piperidine-2-carboxylate]",competition of p300-p probe binding to p300,p300,efficiently competed
same,"transcription of p21 (mRNA, qPCR)",p21,confirmed
same,competition of FKBP-p probe binding to FKBP12^F36V,FKBP12^F36V,efficiently competed
same,binding at the non p53 binding sites within the C-terminus of p21 gene,p21 promoter,no significant increase
same,binding of FKBP12^F36V-p53 to four p53 binding sites on p21 promoter,p21 promoter,increased
